Columns and labels:
PMM patient fibroblasts = test: Fatty acid OXPHOS in PMM patient fibroblasts (FIG. 4B, all lines); assay type: cell-based, human; conditions: 3, 9 and 30 nM
Description: LHON/Leigh cells were treated with DMSO or Compound (I) in complete media supplemented with 0.5 mM carnitine for 24 hours prior to assaying. Treated cells were trypsinized, collected in Krebs-Henseleit Buffer (KHB) and pelleted.
Palmitate-mediated OXPHOS was measured using an Oxygraph-2k (Oroboros Instruments). Cells (1×10^6) in KHB were loaded into each chamber with 250 μM BSA or BSA-conjugated palmitate. KHB was added to reach a final volume of 2 mL. Respiration was measured at 37° C. as previously described in Zhang, Z., et al., Primary respiratory chain disease causes tissue-specific dysregulation of the global transcriptome and nutrient-sensing signaling network. (1932-6203). Briefly, BSA and BSA-conjugated palmitate treated cells were analyzed simultaneously in two separate chambers. […]
Data were analyzed using DatLab6 software. […] Non-mitochondrial respiration was measured after addition of Rotenone and Antimycin A sequentially (ROX, residual oxygen consumption, background) and subtracted from maximal respiration values. […]
FAO was measured using a Seahorse XF96 (Seahorse Biosciences). […]

[1] = system: PPARδ target genes and FAO genes in quadriceps muscle; test: Gene expression analysis of quadriceps muscle in aged DIO mice; assay type: in vivo, mouse; conditions: 30 mg/kg oral once daily, 5 weeks
Description: All animal studies were performed in accordance with Charles River Laboratories animal welfare protocols. Male Diet-Induced Obese (DIO) C57BL/6NTac mice 28 weeks of age were fed a high fat diet. 20 mice were randomized based on bodyweight into two cohorts of 10 mice each. Five mice were assigned to each treatment group in each cohort (i) vehicle or (ii) Compound (I) at 30 mg/kg via (n=10 total animals per treatment). […] Mice were acclimatized to the treadmill room for one hour on days of training or endurance runs. After an initial 5 min exploration period the treadmill belt moved at 5 m/min for 10 min with the motivation grid intensity set to 0.46 mA. Mice required a few visits to the grid to learn to walk/run on the moving belt and avoid the electric grid shock. After two acclimatization periods the mice learned to avoid the electric grid and stay on the moving belt, with fewer visits to the electric grid. The maximum speed for the endurance run was capped at 16.5 m/min based on speed acclimation runs, which represents the speed at which 25% of animals are running in the top ⅔ of the treadmill at a 5° slope. The mice were considered exhausted if they stayed on the electric grid with no limbs on the treadmill belt for 10 seconds.
Before and after the exhaustion run, blood samples were obtained via a tail vein nick. At the end of the study (day 45) whole blood along with gastrocnemius and quadriceps skeletal muscles were collected following CO2 euthanasia.

KSS fibroblasts = test: Seahorse mitochondrial fatty acid oxidation; assay type: cell-based, human
Description: (§1) FAO was measured using a Seahorse XF96 (Seahorse Biosciences). MELAS m.3243A>G fibroblasts, KSS fibroblasts, and MERRF tRNA-Lys 8344 cybrids were treated with DMSO or Compound (I) 8 hours after seeding into flasks. 24 hours after initial treatment, media was changed to complete media with DMSO or Compound (I) with reduced glucose (1.1 mM for primary fibroblasts and 5.5 mM for cybrids) and 0.5 mM carnitine. After 48 hours after initial treatment, cells were plated into 96-well cell culture microplates at a density of 40,000 cells per well. FAO assay was initiated 8 hours after plating.
(§2) 200 μL of KHB was added to the blank wells and 200 μL KHB mixed with control BSA (final 0.074 mM) or BSA-palmitate (final 0.074 mM BSA, 500 μM palmitate was added to the appropriate wells. Stress test components compounds are added in the following sequential order; 1) Oligomycin, 2) FCCP, and 3) Rotenone and Antimycin A for final concentrations of 2.5 μM, 6 μM and 1 μM, respectively. Oxidation of palmitate was assessed using the same ratio as LHON/Leigh fibroblasts.

[2] = system: MELAS m.3243A>G fibroblasts; test: Seahorse mitochondrial fatty acid oxidation; assay type: cell-based, human
Description: as §1, §2

[3] = system: MERRF tRNA-Lys 8344 cybrids; test: Seahorse mitochondrial fatty acid oxidation; assay type: cell-based, human; conditions: MERRF cybrid cell line, FIG. 4B
Description: as §1, §2

In the case of `Cc1cnc(-c2ccc(C(F)(F)F)cc2)n1Cc1ccccc1OCCC[C@@H](C)CC(=O)O` [Compound (I), (R)-3-Methyl-6-(2-((5-methyl-2-(4-(trifluoromethyl)phenyl)-1H-imidazol-1-yl)methyl)-phenoxy)hexanoic acid], the “fatty acid OXPHOS” value (PMM patient fibroblasts) is reported as “increased”, the “Angptl4 expression increase in quadriceps muscle” value ([1]; FIG. 5A) is reported as 3.5 fold and the “Pdk4 expression increase in quadriceps muscle” value ([1]; FIG. 5B) is reported as 2.5 fold. The “Acadvl expression (FAO gene)” value ([1]; FIG. 5C-5E) was “significantly increased”, the “Cpt1a expression (FAO gene)” value ([1]; FIG. 5C-5E) was “significantly increased” and the “Slc25a20 expression (FAO gene)” value ([1]; FIG. 5C-5E) was “significantly increased”. For the same molecule, the “fatty acid-mediated OXPHOS, dose response” value (KSS fibroblasts; KSS patient fibroblasts, two biological replicates, FIG. 4B) was “trending dose response”, the “increase in fatty acid mediated OXPHOS” value (KSS fibroblasts; KSS, 30 nM) was “thirty percent or greater” and the “restoration to the fatty acid-mediated OXPHOS of healthy donor fibroblasts” value (KSS fibroblasts; KSS, 30 nM) was “near complete restoration”. For the same molecule, the “fatty acid-mediated OXPHOS, dose response” value ([2]; MELAS patient fibroblasts, two biological replicates, FIG. 4B) was “trending dose response”, the “increase in fatty acid mediated OXPHOS” value ([2]; MELAS, 30 nM) was “thirty percent or greater” and the “restoration to the fatty acid-mediated OXPHOS of healthy donor fibroblasts” value ([2]; MELAS, 30 nM) was “partial”. The “fatty acid mediated OXPHOS response” value ([3]; 30 nM) was “less pronounced” and the “fatty acid mediated OXPHOS, dose response” value [3] was “dose-dependent trend”.

From patent publication US20240358681A1, “METHODS OF USE OF PPAR AGONIST COMPOUNDS AND PHARMACEUTICAL COMPOSITIONS THEREOF” (Mitobridge, Inc., priority 2021, published 2024)
